Assay results as given in publication PMC12959773 (Protein & Cell, 2025).
Positions count from the first letter of the chain named.

Tests used:
SLC7A13-SLC3A1 complex [1] = molecular target: T1, SLC7A13-SLC3A1 complex (Homo sapiens, UniProt Q8TCU3, F216A); assay: [2H]-cystine uptake, isotope tracking; type: cell-based; conditions: HEK293 cells transfected with SLC7A13 and SLC3A1; labelled compound
T1 construct: heterodimeric light/heavy chain transporter, dimer of heterodimers; ectopically expressed in HEK293T / HEK293 cells (Expi293 for cryo-EM); with Amino acid transporter heavy chain SLC3A1
T1 sequence (Q8TCU3 1-470 F216A): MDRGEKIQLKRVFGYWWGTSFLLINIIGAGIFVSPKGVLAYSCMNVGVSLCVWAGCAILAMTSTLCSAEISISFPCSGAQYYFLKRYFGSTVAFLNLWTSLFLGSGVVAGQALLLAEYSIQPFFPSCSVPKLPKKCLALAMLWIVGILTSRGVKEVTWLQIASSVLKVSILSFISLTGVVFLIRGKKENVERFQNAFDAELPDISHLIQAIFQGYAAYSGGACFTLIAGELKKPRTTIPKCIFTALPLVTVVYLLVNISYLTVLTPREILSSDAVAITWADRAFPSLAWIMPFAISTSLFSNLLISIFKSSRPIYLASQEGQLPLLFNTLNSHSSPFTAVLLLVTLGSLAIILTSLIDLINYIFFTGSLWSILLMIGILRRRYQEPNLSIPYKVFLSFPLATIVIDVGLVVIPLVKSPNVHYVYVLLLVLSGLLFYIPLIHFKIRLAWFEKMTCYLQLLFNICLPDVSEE
T1 sequence (Q07837 1-685 partner): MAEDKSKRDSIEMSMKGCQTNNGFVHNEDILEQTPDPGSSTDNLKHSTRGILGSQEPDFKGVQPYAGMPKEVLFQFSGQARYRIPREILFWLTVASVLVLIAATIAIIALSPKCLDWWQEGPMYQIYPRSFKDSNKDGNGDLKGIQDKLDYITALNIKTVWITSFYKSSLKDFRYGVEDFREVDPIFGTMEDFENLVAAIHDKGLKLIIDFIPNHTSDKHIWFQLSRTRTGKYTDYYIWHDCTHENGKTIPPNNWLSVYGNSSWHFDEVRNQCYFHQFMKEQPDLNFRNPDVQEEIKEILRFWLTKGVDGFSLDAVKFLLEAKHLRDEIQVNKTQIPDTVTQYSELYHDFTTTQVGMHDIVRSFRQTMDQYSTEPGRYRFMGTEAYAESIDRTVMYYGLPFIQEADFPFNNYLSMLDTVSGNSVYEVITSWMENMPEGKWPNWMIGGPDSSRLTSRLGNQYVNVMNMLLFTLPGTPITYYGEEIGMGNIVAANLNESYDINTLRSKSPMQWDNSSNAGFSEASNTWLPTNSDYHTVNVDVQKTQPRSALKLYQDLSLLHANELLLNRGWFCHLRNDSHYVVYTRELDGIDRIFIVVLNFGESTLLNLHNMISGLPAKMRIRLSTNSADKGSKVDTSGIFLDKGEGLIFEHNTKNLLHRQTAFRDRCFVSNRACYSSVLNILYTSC

SLC7A13-SLC3A1 complex [2] = molecular target: T2, SLC7A13-SLC3A1 complex (Homo sapiens, UniProt Q8TCU3); assay: microscale thermophoresis; conditions: read-out: binding affinity
T2 construct: heterodimeric light/heavy chain transporter, dimer of heterodimers; ectopically expressed in HEK293T / HEK293 cells (Expi293 for cryo-EM); with Amino acid transporter heavy chain SLC3A1
T2 sequence (Q8TCU3 1-470): T1 sequence (Q8TCU3 1-470 F216A) with A216F
T2 sequence (Q07837 1-685 partner): T1 sequence (Q07837 1-685 partner)

SLC7A13-SLC3A1 complex [3] = molecular target: T3, SLC7A13-SLC3A1 complex (Homo sapiens, UniProt Q8TCU3, C223A); assay: [2H]-cystine uptake, isotope tracking; type: cell-based; conditions: HEK293 cells transfected with SLC7A13 and SLC3A1; labelled compound
T3 construct: heterodimeric light/heavy chain transporter, dimer of heterodimers; ectopically expressed in HEK293T / HEK293 cells (Expi293 for cryo-EM); with Amino acid transporter heavy chain SLC3A1
T3 sequence (Q8TCU3 1-470 C223A): T1 sequence (Q8TCU3 1-470 F216A) with A216F, C223A
T3 sequence (Q07837 1-685 partner): T1 sequence (Q07837 1-685 partner)

N[C@@H](CSSC[C@H](N)C(=O)O)C(=O)O [cystine]
cystine uptake (SLC7A13-SLC3A1 complex [1]): mutation in any of the seven SLC7A13-specific residues to alanine significantly reduced SLC7A13’s transporter activities
Kd (SLC7A13-SLC3A1 complex [2]): 112 ± 44 µM
cystine uptake (SLC7A13-SLC3A1 complex [3]): mutation in any of the seven SLC7A13-specific residues to alanine significantly reduced SLC7A13’s transporter activities
